Source: publication PMC9779571, “Guanidine Derivatives Containing the Chalcone Skeleton Are Potent Antiproliferative Compounds against Human Leukemia Cells” (International Journal of Molecular Sciences, 2022)
“And” between values parts separate entries of the source, which are not always exact repeats. Identical values can stand only once.

Tests used:
U-937 cells = experiment: MTT cytotoxicity assay, U-937; assay type: cell-based; settings: Homo sapiens, U-937, 72 h, means ± SEM
Excerpt: (§1) U-937, HL-60, MOLT-3, NALM-6, and SK-MEL-1 cells were from DSMZ (German Collection of Microorganisms and Cell Cultures, Braunschweig, Germany). U-937/Bcl-2 cells were kindly provided by Dr. Jacqueline Bréard (INSERM U749, Faculté de Pharmacie Paris-Sud, Châtenay-Malabry, France). The U-937 is a pro-monocytic, human promyelocytic leukemia cell line that was isolated from a histiocytic lymphoma. HL-60 is a human acute myeloid leukemia cell line. MOLT-3 is a human acute lymphoblastic leukemia cell line. NALM-6 is a human B cell precursor leukemia. SK-MEL-1 is a human melanoma cell line growing singly or in clumps (occasional giant, polynucleated cell) in suspension. Cells were cultured in RPMI 1640 medium containing 10% (v/v) heat-inactivated fetal bovine serum, 100 μg/mL streptomycin, and 100 U/mL penicillin, incubated at 37 °C in a humidified atmosphere containing 5% CO2 as described. The doubling times of the cell lines were 24 h in HL-60, 30 h in U-937, U-937/Bcl-2, 40 h in MOLT-3 and NALM-6, and several days in SK-MEL-1 cells. Human peripheral blood mononuclear cells (PBMC) were isolated from heparin-anticoagulated blood of healthy volunteers by centrifugation with Ficoll-Paque Plus (GE Healthcare Bio-Sciences AB, Uppsala, Sweden). PBMC were also stimulated with phytohemagglutinin (2 µg/mL) for 48 h before the experimental treatment. The trypan blue exclusion method was used for counting the cells by a hemocytometer with 95% viability in all the experiments. Compounds were dissolved in dimethyl sulfoxide (DMSO) and kept under dark conditions at 25 °C. […] The cytotoxicity of the synthetic compounds was evaluated by colorimetric 3-(4,5-dimethyl-2-thiazolyl-)-2,5-diphenyl-2H-tetrazolium bromide (MTT) assay as previously described. Briefly, cells (5000 per well) were incubated with increasing concentrations of compounds for 72 h into a 96-well plate. Then, the supernatants were removed and 0.5 mg/mL MTT was added and incubated for 4 h at 37 °C. Sodium dodecyl sulfate (10% w/v) in 0.05 M HCl was added to solubilize the reaction products and the absorbance was measured at 570 nm with a reference wavelength of […] using an ELISA reader (Bio-Rad, Hercules, CA, USA). The IC50 values (concentrations inducing a 50% inhibition of cell viability) were determined graphically for each experiment by a nonlinear regression using the curve fitting routine implemented within the software Prism 5.0 (GraphPad, La Jolla, CA, USA).

HL-60 cells = experiment: MTT cytotoxicity assay, HL-60; assay type: cell-based; settings: Homo sapiens, HL-60, 72 h, means ± SEM
Excerpt: as §1

MOLT-3 cells = experiment: MTT cytotoxicity assay, MOLT-3; assay type: cell-based, human; settings: Homo sapiens, MOLT-3, 72 h, means ± SEM
Excerpt: as §1

NALM-6 cells = experiment: MTT cytotoxicity assay, NALM-6; assay type: cell-based, human; settings: for IC50: Homo sapiens, NALM-6, 72 h, 72 h, MTT, means ± SEM
Excerpt: as §1

U-937/Bcl-2 cells = experiment: MTT cytotoxicity assay, U-937/Bcl-2; assay type: cell-based, human; settings: Homo sapiens, U-937, 72 h, means ± SEM
Excerpt: as §1

SK-MEL-1 cells = experiment: MTT cytotoxicity assay, SK-MEL-1; assay type: cell-based, human; settings: Homo sapiens, SK-MEL-1, 72 h, means ± SEM
Excerpt: as §1

U-937 leukemia cells = experiment: Cell cycle and sub-G1 analysis by flow cytometry (propidium iodide); assay type: cell-based, human; settings: 24 h; for fold increase of sub-G1 cells over control / %G1 / %G2-M / %S / %Sub-G1: 10 µM; for fold increase of sub-G1 cells over control: U-937; for %G1 / %G2-M / %S / %Sub-G1: U-937, means ± S.E.; for cell cycle arrest: U-937, 10 µM
Method: Cells (2.5 × 10^5) were centrifuged for 10 min at 500× g, washed with cold PBS, fixed with ice-cold 75% ethanol and stored at −20 °C overnight. Samples were then centrifuged at 500× g for 10 min at 4 °C, washed with PBS, resuspended in 200 μL of PBS containing 100 μg/mL RNase and 50 μg/mL propidium iodide and incubated for 1 h in the dark. The DNA content was analyzed by flow cytometry with a BD FACSVerse^TM cytometer (BD Biosciences, San Jose, CA, USA). Apoptosis was also evaluated by flow cytometric analysis of double-staining annexin V-FITC and propidium iodide cells as previously described.

[1] = test system: six human cancer cell lines; experiment: MTT cytotoxicity assay, all cell lines assayed (summary statements); assay type: cell-based; settings: 72 h, MTT
Excerpt: U-937, HL-60, MOLT-3, NALM-6, and SK-MEL-1 cells were from DSMZ (German Collection of Microorganisms and Cell Cultures, Braunschweig, Germany). U-937/Bcl-2 cells were kindly provided by Dr. Jacqueline Bréard (INSERM U749, Faculté de Pharmacie Paris-Sud, Châtenay-Malabry, France). The U-937 is a pro-monocytic, human promyelocytic leukemia cell line that was isolated from a histiocytic lymphoma. HL-60 is a human acute myeloid leukemia cell line. MOLT-3 is a human acute lymphoblastic leukemia cell line. NALM-6 is a human B cell precursor leukemia. SK-MEL-1 is a human melanoma cell line growing singly or in clumps (occasional giant, polynucleated cell) in suspension. Cells were cultured in RPMI 1640 medium containing 10% (v/v) heat-inactivated fetal bovine serum, 100 μg/mL streptomycin, and 100 U/mL penicillin, incubated at 37 °C in a humidified atmosphere containing 5% CO2 as described. […] The cytotoxicity of the synthetic compounds was evaluated by colorimetric 3-(4,5-dimethyl-2-thiazolyl-)-2,5-diphenyl-2H-tetrazolium bromide (MTT) assay as previously described. […] Sodium dodecyl sulfate (10% w/v) in 0.05 M HCl was added to solubilize the reaction products and the absorbance was measured at 570 nm with a reference wavelength of […] using an ELISA reader (Bio-Rad, Hercules, CA, USA). […]

SMILES | IC50 (U-937 cells) [µM] | IC50 (HL-60 cells) [µM] | IC50 (MOLT-3 cells) [µM] | IC50 (NALM-6 cells) [µM] | IC50 (U-937/Bcl-2 cells) [µM] | IC50 (SK-MEL-1 cells) [µM] | fold increase of sub-G1 cells over control (U-937 leukemia cells) | %G1 (U-937 leukemia cells) [%] | %G2-M (U-937 leukemia cells) | %S (U-937 leukemia cells) [%] | %Sub-G1 (U-937 leukemia cells) | cell cycle arrest (U-937 leukemia cells) | cytotoxicity against the cancer cell lines assayed [1] | increase in cytotoxicity on substitution of p-tosyl-sulfonyl group (6b) by phenyl group (NALM-6 cells; NALM-6, IC50 ratio 6b vs 6h)
[N-]=[N+]=Nc1ccc(/C=C/C(=O)c2c(O)cccc2OCc2ccccc2)cc1 [Compound 3] | > 30 | > 30 | 7.4 ± 0.4 | 11.6 ± 1.6 | > 30 | > 30 |  |  |  |  |  |  |  | 
Cc1ccc(S(=O)(=O)NC(=Nc2ccc(/C=C/C(=O)c3c(O)cccc3OCc3ccccc3)cc2)NC(C)C)cc1 [Compound 6a] | 11.4 ± 6.5 | 3.7 ± 1.6 | 2.9 ± 1.1 | 2.9 ± 0.5 | 2.9 ± 0.2 | > 30 |  |  |  |  |  |  |  | 
Cc1ccc(S(=O)(=O)NC(=Nc2ccc(/C=C/C(=O)c3c(O)cccc3OCc3ccccc3)cc2)N(C(C)C)C(C)C)cc1 [Compound 6b] | 18.5 ± 9.6 | 20.5 ± 9.5 | 2 ± 0.7 | 27 ± 0.8 | 11.7 ± 7 | > 30 |  |  |  |  |  |  |  | 
Cc1ccc(S(=O)(=O)NC(=Nc2ccc(/C=C/C(=O)c3c(O)cccc3OCc3ccccc3)cc2)N(C)c2ccccc2)cc1 [Compound 6c] | 9.5 ± 5.3 | 4.2 ± 0.5 | 2.5 ± 0.2 | 9.9 ± 3.1 | 4.2 ± 1.2 | > 30 | ~ 10 fold | 37.4 ± 0.3 | 11.4 ± 0.4% | 27.0 ± 0.7 | 23.5% and 23.5 ± 1.2 % | not caused by a significant cell cycle arrest in any phase |  | 
Cc1ccc(S(=O)(=O)NC(=Nc2ccc(/C=C/C(=O)c3c(O)cccc3OCc3ccccc3)cc2)N2CCCCC2)cc1 [Compound 6d] | > 30 | 28.5 ± 14.3 | 3.3 ± 0.6 | 6.6 ± 1.2 | 24.6 ± 5.4 | > 30 |  |  |  |  |  |  |  | 
Cc1ccc(S(=O)(=O)NC(=Nc2ccc(/C=C/C(=O)c3c(O)cccc3OCc3ccccc3)cc2)N2CCOCC2)cc1 [Compound 6e] | 5.4 ± 2.1 | 3.8 ± 1.1 | 3.2 ± 1.5 | 3.1 ± 0.5 | 2.3 ± 0.9 | 14.3 ± 5.7 | ~ 5 fold | 36.5 ± 2.3 | 27% and 27.3 ± 2.0 % | 23.6 ± 0.5 | 11.9% and 11.9 ± 0.2 % | induced an arrest at the G2-M phase |  | 
CCCCCCCCCCCCCCCCCCNC(=Nc1ccc(/C=C/C(=O)c2c(O)cccc2OCc2ccccc2)cc1)NS(=O)(=O)c1ccc(C)cc1 [Compound 6g] | > 30 | > 30 | > 30 | > 30 | > 30 | > 30 |  |  |  |  |  |  | not cytotoxic | 
CC(C)N(/C(=N/c1ccc(/C=C/C(=O)c2c(O)cccc2OCc2ccccc2)cc1)Nc1ccccc1)C(C)C [Compound 6h] | 10.6 ± 2.6 | 5.2 ± 0.9 | 4.3 ± 0.5 | 5.4 ± 0.2 | 14 ± 6.6 | 5.2 ± 1 |  | 53.7 ± 0.4 | 9.2 ± 0.5 % | 29.5 ± 0.3 | 7.2 ± 1.1 % | not caused by a significant cell cycle arrest in any phase |  | five-fold
O=C(/C=C/c1ccc(N=C(Nc2ccccc2)N2CCOCC2)cc1)c1c(O)cccc1OCc1ccccc1 [Compound 6j] | 8.6 ± 1.1 | 6.2 ± 1.7 | 1.8 ± 0.5 | 4.1 ± 0.5 | 11.7 ± 3.4 | 5.4 ± 0.8 |  | 51.3 ± 1.1 | 11.5 ± 0.1% | 32.0 ± 0.4 | 4.7 ± 0.6% |  |  | 
CN1CCN(C(=Nc2ccc(/C=C/C(=O)c3c(O)cccc3OCc3ccccc3)cc2)Nc2ccccc2)CC1 [Compound 6k] | 14 ± 1.1 | 11.4 ± 5.5 | 21.7 ± 6.5 | 24.8 ± 3.3 | 14 ± 5.1 | > 30 |  |  |  |  |  |  |  | 
COc1cccc2c1C(=O)c1c(O)c3c(c(O)c1C2=O)C[C@@](O)(C(=O)CO)C[C@@H]3O[C@H]1C[C@H](N)[C@H](O)[C@H](C)O1 [Doxorubicin, reference compound] | 0.1 |  |  |  |  | 0.3 ± 0.1 |  |  |  |  |  |  |  | 
COc1cc([C@@H]2c3cc4c(cc3[C@@H](O[C@@H]3O[C@@H]5CO[C@@H](C)O[C@H]5[C@H](O)[C@H]3O)[C@H]3COC(=O)[C@H]23)OCO4)cc(OC)c1O [Etoposide, reference compound] | 1.8 ± 0.2 | 0.6 ± 0.2 | 0.2 ± 0.1 |  |  | 9 ± 3 |  |  |  |  |  |  |  | 
